Assays:
[1] = excess molar enthalpy (molar enthalpy of mixing); xn = mol fraction of the nth substance listed; conditions: 298.15 K, 101 kPa, Liquid, isothermal titration calorimeter
[2] = Liquid; for vapor or sublimation pressure: Ebulliometric method (Recirculating still); for mass density: 101 kPa, Vibrating tube method
[3] = xn = mol fraction of the nth substance listed; conditions: 101.33 kPa, Liquid, Vibrating tube method, x2 = 0

c1cc[nH]c1 [pyrrole] + C1CCCCC1
[1]
Conditions | excess molar enthalpy [kcal/mol]
x1 = 0.015 | 0.056
x1 = 0.03 | 0.0991
x1 = 0.0451 | 0.131
x1 = 0.0601 | 0.155
x1 = 0.0752 | 0.175
x1 = 0.0905 | 0.192
x1 = 0.1057 | 0.207
x1 = 0.1208 | 0.221
x1 = 0.1358 | 0.233
x1 = 0.1543 | 0.246
x1 = 0.1692 | 0.255
x1 = 0.184 | 0.264
x1 = 0.1989 | 0.272
x1 = 0.2139 | 0.279
x1 = 0.2288 | 0.286
x1 = 0.2437 | 0.292
x1 = 0.2587 | 0.297
x1 = 0.2737 | 0.302
x1 = 0.2887 | 0.307
x1 = 0.3037 | 0.311
x1 = 0.3186 | 0.315
x1 = 0.3337 | 0.319
x1 = 0.3485 | 0.322
x1 = 0.3677 | 0.327
x1 = 0.3829 | 0.33
x1 = 0.3982 | 0.333
x1 = 0.4135 | 0.335
x1 = 0.4287 | 0.337
x1 = 0.444 | 0.338
x1 = 0.4592 | 0.34
x1 = 0.4745 | 0.341
x1 = 0.4898 | 0.341
x1 = 0.505 | 0.341
x1 = 0.5203 | 0.341
x1 = 0.5355 | 0.34
x1 = 0.5507 | 0.34
x1 = 0.566 | 0.338
x1 = 0.5812 | 0.337
x1 = 0.5964 | 0.335
x1 = 0.6116 | 0.332
x1 = 0.6269 | 0.329
x1 = 0.6421 | 0.325
x1 = 0.6573 | 0.321
x1 = 0.6725 | 0.317
x1 = 0.6878 | 0.312
x1 = 0.703 | 0.306
x1 = 0.7182 | 0.298
x1 = 0.731 | 0.289
x1 = 0.7468 | 0.28
x1 = 0.7627 | 0.269
x1 = 0.7786 | 0.259
x1 = 0.7945 | 0.248
x1 = 0.8104 | 0.236
x1 = 0.8263 | 0.223
x1 = 0.8421 | 0.209
x1 = 0.858 | 0.193
x1 = 0.874 | 0.177
x1 = 0.8899 | 0.159
x1 = 0.9058 | 0.139
x1 = 0.9218 | 0.119
x1 = 0.9377 | 0.0962
x1 = 0.9537 | 0.0726
x1 = 0.9691 | 0.0481
x1 = 0.9846 | 0.0222

c1cc[nH]c1 [pyrrole] + CCCCCO
[1]
Conditions | excess molar enthalpy [kcal/mol]
x1 = 0.0374 | 0.00848
x1 = 0.0962 | 0.0373
x1 = 0.1388 | 0.0644
x1 = 0.1801 | 0.0927
x1 = 0.2202 | 0.12
x1 = 0.259 | 0.147
x1 = 0.2967 | 0.171
x1 = 0.3333 | 0.193
x1 = 0.3689 | 0.212
x1 = 0.4034 | 0.229
x1 = 0.437 | 0.243
x1 = 0.4696 | 0.254
x1 = 0.5014 | 0.263
x1 = 0.5323 | 0.269
x1 = 0.5604 | 0.271
x1 = 0.5624 | 0.273
x1 = 0.5804 | 0.272
x1 = 0.5916 | 0.275
x1 = 0.6004 | 0.273
x1 = 0.6202 | 0.275
x1 = 0.6204 | 0.272
x1 = 0.6404 | 0.271
x1 = 0.648 | 0.272
x1 = 0.6604 | 0.268
x1 = 0.6616 | 0.27
x1 = 0.6804 | 0.264
x1 = 0.7004 | 0.259
x1 = 0.7204 | 0.253
x1 = 0.7404 | 0.245
x1 = 0.7604 | 0.236
x1 = 0.7804 | 0.226
x1 = 0.8004 | 0.214
x1 = 0.8204 | 0.2
x1 = 0.8404 | 0.185
x1 = 0.8603 | 0.169
x1 = 0.8803 | 0.15
x1 = 0.9002 | 0.13
x1 = 0.9202 | 0.108
x1 = 0.9401 | 0.084
x1 = 0.9601 | 0.0576
x1 = 0.98 | 0.0289

C1CCCCC1 [cyclohexane]
[2]
Conditions | vapor or sublimation pressure [kPa]
338.15 K | 61.5
348.15 K | 84.7

c1ccncc1 [pyridine]
[2]
Conditions | mass density [kg/m3] | vapor or sublimation pressure [kPa]
298.15 K | 978.01 | –
308.15 K | 967.91 | –
318.15 K | 957.76 | –
328.15 K | 947.56 | –
338.15 K | 937.3 | –
353.15 K | – | 32.3
363.15 K | – | 45.9
373.15 K | – | 63.7

c1cc[nH]c1 [pyrrole] + CCCCO
[1]
Conditions | excess molar enthalpy [kcal/mol]
x1 = 0.0262 | 0.00454
x1 = 0.0776 | 0.0248
x1 = 0.1154 | 0.0454
x1 = 0.1526 | 0.0679
x1 = 0.189 | 0.091
x1 = 0.2248 | 0.114
x1 = 0.2599 | 0.135
x1 = 0.2944 | 0.155
x1 = 0.3283 | 0.174
x1 = 0.3616 | 0.19
x1 = 0.3943 | 0.205
x1 = 0.4265 | 0.217
x1 = 0.4581 | 0.228
x1 = 0.4891 | 0.236
x1 = 0.5196 | 0.242
x1 = 0.5497 | 0.246
x1 = 0.5703 | 0.246
x1 = 0.5792 | 0.248
x1 = 0.5803 | 0.246
x1 = 0.6003 | 0.247
x1 = 0.6082 | 0.248
x1 = 0.6203 | 0.246
x1 = 0.6225 | 0.248
x1 = 0.6403 | 0.244
x1 = 0.6603 | 0.241
x1 = 0.6803 | 0.238
x1 = 0.7003 | 0.233
x1 = 0.7203 | 0.227
x1 = 0.7403 | 0.22
x1 = 0.7603 | 0.211
x1 = 0.7803 | 0.202
x1 = 0.8002 | 0.191
x1 = 0.8202 | 0.179
x1 = 0.8403 | 0.166
x1 = 0.8603 | 0.151
x1 = 0.8802 | 0.135
x1 = 0.9002 | 0.117
x1 = 0.9201 | 0.0972
x1 = 0.9401 | 0.0761
x1 = 0.9601 | 0.0532
x1 = 0.98 | 0.0285

c1cc[nH]c1 [pyrrole] + CCCO
[1]
Conditions | excess molar enthalpy [kcal/mol]
x1 = 0.0299 | 0.00707
x1 = 0.0598 | 0.0144
x1 = 0.0897 | 0.0255
x1 = 0.1197 | 0.0392
x1 = 0.1497 | 0.0547
x1 = 0.1796 | 0.071
x1 = 0.2096 | 0.0877
x1 = 0.2396 | 0.104
x1 = 0.2696 | 0.12
x1 = 0.2996 | 0.136
x1 = 0.3296 | 0.15
x1 = 0.3596 | 0.163
x1 = 0.3896 | 0.175
x1 = 0.4197 | 0.185
x1 = 0.4497 | 0.193
x1 = 0.4652 | 0.199
x1 = 0.4797 | 0.2
x1 = 0.4902 | 0.205
x1 = 0.5202 | 0.211
x1 = 0.5502 | 0.215
x1 = 0.5803 | 0.217
x1 = 0.6103 | 0.218
x1 = 0.6403 | 0.216
x1 = 0.6703 | 0.212
x1 = 0.7003 | 0.206
x1 = 0.7303 | 0.198
x1 = 0.7603 | 0.188
x1 = 0.7903 | 0.175
x1 = 0.8203 | 0.159
x1 = 0.8503 | 0.14
x1 = 0.8802 | 0.119
x1 = 0.9101 | 0.0942
x1 = 0.9401 | 0.0658
x1 = 0.97 | 0.0338

c1cc[nH]c1 [pyrrole]
[2]
Conditions | mass density [kg/m3] | vapor or sublimation pressure [kPa]
298.15 K | 965.54 | –
308.15 K | 956.83 | –
318.15 K | 948.03 | –
328.15 K | 939.14 | –
338.15 K | 930.13 | 9.4
348.15 K | – | 14.6
353.15 K | – | 18
358.15 K | – | 21.9
363.15 K | – | 26.8
373.15 K | – | 38.5

c1ccncc1 [pyridine] + c1cc[nH]c1
[3]
Conditions | mass density [kg/m3]
298.15 K | 978.01
308.15 K | 967.91
318.15 K | 957.76
328.15 K | 947.56
338.15 K | 937.3

c1ccccc1 [benzene]
[2]
Conditions | vapor or sublimation pressure [kPa]
338.15 K | 62.1
348.15 K | 86.4

— the NIST ThermoML archive (doi:10.1016/j.fluid.2013.10.029)
